US12116344B2, “Crystalline forms of a pharmaceutical compound” (Azafaros B.V., priority 2020, dated 2024)

What was measured:
[1] = test system: glucosylceramide C16:0 and C18:0; assay: Glucosylceramide levels in brain homogenate of NPC mice (HPLC-MS/MS); assay type: in vivo
Procedure: (§1) 24 NPC1 (−/−) mice (groups D to I) were treated per oral gavage (10 mL/kg) with AZ-3102-00 from post-natal day 11 (P11) to post-natal-day 70 (P70). Dosing will start at 1.5 mg/kg from P11 to P25, followed by 3 mg/kg from P26 to P70. Control mice included 6 NPC1 (−/−) and 4 NPC (+/−) mice treated with vehicle and 4 NPC (+/+) mice received AZ-3102-00 (groups A to C).
Brain tissues were homogenized in a solution of ultrapure water:methanol (1:1) with 0.1% formic acid (4 mL for each gram of tissue) using a FastPrep 24™ Microtube homogenizer. Tissues homogenates were then mixed for protein precipitation with a solution of acetonitrile:ultrapure water:methanol (90:5:5) containing 500 nM of GlcCer C17:0 and 0.1% formic acid. After a 5-min incubation at room temperature, the samples were centrifuged for 5 min (13000 rpm, 20° C.) and 50 μL of the supernatants were transferred into a siliconized MTP 96-well plate.
Concentrations of glucosylceramide C16:0 (GlcCer C16:0), glucosylceramide C18:0 (GlcCer C18:0), and glucosylceramide C24:1 (GlcCer C24:1) brain, samples were quantified by HPLC-MS/MS detection in the multiple-reaction-monitoring mode (MRM). Supernatants were analysed by HPLC-MS/MS while using a HALO HILIC column (150*4.6 mm, 2.7 μm) from Advanced Materials Technology for distinguishing between the galactosyl- and -glucosylceramide isomers. […] Analysis of GlcCer C16:0 and GlcCer C18:0 was performed using a gradient with mobile phase A: 5 mM Ammonium Acetate in 94.5% acetonitrile 2.5% Methanol, 2.5% ultrapure water and 0.5% formic acid and mobile phase B: ultrapure Water and 0.1% formic acid. The LLOQ in brain samples for GlcCer 16:0, GlcCer 18:0 and GlcCer 24:1 was […] tissue, respectively.

Calbindin-D28k = assay: Brain immunofluorescence of Calbindin-D28k (Purkinje cell marker); assay type: in vivo, mice
Procedure: Mouse right hemi-brains were fixed by immersion in freshly prepared 4% paraformaldehyde in PB (pH 7.4) for two hours at room temperature. Afterwards, hemispheres were transferred to 15% sucrose/PBS and stored at 4° C. until sunk to ensure cryoprotection. Tissue blocks were then trimmed as needed, transferred to cryomolds, embedded in OCT medium, frozen in dry ice-cooled isopentane and stored in an ultra-deep freezer (set at −80° C. target temperature).
Five consecutive cryosections were sagittally cut at 10 μm thickness on a Leica cryotome. The next 25 sections per level were discarded. This collection scheme was repeated for 12 levels and may have been modified to collect from the correct levels, e.g., if brains were smaller due to young age or genotype. In total 12×5=60 sections were collected. Sectioning levels were chosen according to the brain atlas of Paxinos and Franklin (“The Mouse Brain in Stereotaxic Coordinates”, 2nd edition, 2001). Collection of sections started at a level ˜0.2 mm lateral from midline and extend through the hemisphere to ensure systematic random sampling through the target regions (FIGS. 10 and 15). Sections were stored at −20° C. Almost the entire brain was sectioned, so the residual tissue block was disposed when all sections were collected.
For each incubation, a uniform systematic random set of five sections per mouse was selected (one section each from levels 2, 4, 6, 8, 10); for information on systematic random sampling follow this link: http://www.stereoloqy.info/sampling/ […]
Whole slide scans of the stained sections were recorded on a Zeiss automatic microscope AxioScan Z1 with high aperture lenses, equipped with a Zeiss Axiocam 506 mono and a Hitachi 3CCD HV-F202SCL camera and Zeiss ZEN 2.3 software.
Image analysis was done with Image Pro 10 (Media Cybernetics). […] Afterwards, immunofluorescence was quantitatively evaluated within the identified areas.
For quantification we used background correction if necessary and detect immunoreactive objects by adequate thresholding and morphological filtering (size, shape). […]

NPC (−/−) mice = assay: Clinical signs and tremor score in the Niemann-Pick type C mouse model; assay type: in vivo; details: for Overall clinical signs: scores PND 56-70
Procedure: Out of the 38 mice to be included in this study, there were 30 NPC (−/−) knock-out (KO) mice, 4 NPC (+/−) heterozygous mice and 4 NPC (+/+) wild-type (WT, Balb/c) mice. NPC1(−/−) mice have a premature truncation of the protein deleting 11 out of 13 transmembrane domains leaving the first two transmembrane domains intact. NPC1(−/−) mice homozygous for the recessive NIH allele of the Niemann Pick type C1 gene (Npc1 ml N) show a dual deficiency of sphingomyelinase and glucocerebrosidase activity (JAX #003092). Animals were bred on a BALB/c OlaHsd background.
as §1
Definitions of Clinical Scores and Humane Endpoints Clinical Signs were monitored on a daily basis starting at P45 until the end of the study (according to the template shown in FIG. 18). The parameters “weight loss”, “general health”, “clinical findings” and “line specific findings” were recorded and rated according to a score scale. The sum of this score was used for evaluation.
Pink (=light grey) bars represent the appearance and duration of a high level of tremor (sore of 5); whereas the green (=dark grey) bars represent the appearance and duration of a slight or moderate tremor. […] Possible tremor scores: 0: no tremor1: Slight incoordination, slight-moderate tremor; 5: High level of Tremor, uncoordinated movement; 10: Reduced righting reflex (no animal achieved this score).

[2] = whole brain homogenates, daily oral dosing PND 11-70

OC[C@H]1[C@@H](O)[C@H](O)[C@@H](O)CN1CCCCCOCc1ccc(-c2ccccc2)c(F)c1 [AZ-3102]
Levels of glucosylceramide C16:0 and C18:0 in the brain ([1]; repeat oral administration PND 11-70): increased levels
Increase of GlcCer 16:0 compared to vehicle treated animals [1, 2]: greater than 2 fold
Increase of GlcCer 18:0 compared to vehicle treated animals [1, 2]: approximately 9 fold
Calbindin-D28k immunofluorescence in the cerebellum (Calbindin-D28k; NPC (−/−) mice, treated versus vehicle, all readouts): significantly increased
Calbindin-D28k immunofluorescence in the hippocampus (Calbindin-D28k; NPC mice, group comparison): no significant group differences
Cerebellar Purkinje cell loss (Calbindin-D28k; treated compared to vehicle treated NPC (−/−) mice, calbindin-D28k marker): significantly limited
Mice with a high level of tremor (score of 5) (NPC (−/−) mice; NPC (−/−) mice treated P11-P70, observed PND 56-70, vehicle group 4 out of 5): 1 out of 24
Initiation, duration and strength of tremor (NPC (−/−) mice; NPC (−/−) mice, treated versus vehicle, PND 56-70): diminished
Overall clinical signs (NPC (−/−) mice; NPC (−/−) mice, treated versus vehicle): improved clinical signs
Overall clinical signs (NPC (−/−) mice; NPC (−/−) mice, treated versus vehicle, listed as Form 3): improve the clinical signs
